Measured values: publication PMC11325505, “Nitrogen-Containing Flavonoids—Preparation and Biological Activity” (ACS Omega, 2024)

Test system: transmembrane efflux pumps
Experiment: Ethidium bromide accumulation assay
Assay type: cell-based, S. aureus MSSA 2
Conditions: for accumulation of ethidium bromide compared to 100 μM CCCP: compound at 25 μM, relative to CCCP (100 μM); for efflux inhibition (ethidium bromide accumulation), in words: compared with comparator CCCP, concentrations 25–100 μM
Text: The application of antibiotics often leads to oxidative stress in bacteria, which triggers the efflux pump systems that contribute to antimicrobial resistance.[34] Therefore, modulation of the efflux system has been proposed as another plausible target of derivatives. The efflux pump inhibitor carbonyl cyanide 3-chlorophenylhydrazone (CCCP) was used as a comparator in our assay. Its action destroys the proton-motive force at the membrane so that the efflux pump cannot transport substrates out of the cell. One such universal substrate is ethidium bromide, the accumulation of which in the cell can be measured using fluorescence.
The accumulation assay was performed according to previously published methods with minor modifications.[15],[42] Briefly, a bacterial culture of S. aureus MSSA 2 cultured overnight in the presence of colistin (4 mg/L) to induce oxidative stress and activate efflux system[34] was diluted in PBS to OD600 nm = 0.6. The suspension was centrifuged (13,000 × g; 3 min), resuspended in fresh PBS, and distributed into the wells of a black 96-well microtiter plate (ThermoFisher Scientific). Samples were diluted with EtBr solution (4 μg/mL). 50 μL of the mixture was added to 50 μL of the bacterial suspension. The reaction was monitored using SpectraMax iD5Multi-Mode Microplate Reader (ex/em = 530/600 nm) every 60 s for 60 min.

Structure (SMILES) | accumulation of ethidium bromide compared to 100 μM CCCP | efflux inhibition (ethidium bromide accumulation), in words
O=c1c(O)c(-c2ccc(O)c(O)c2)oc2c(Nc3ccc(F)cc3)c(O)cc(O)c12 [compound 5, 2-(3,4-Dihydroxyphenyl)-8-(4-fluoroanilino)-3,5,7-trihydroxy-4H–1-benzopyran-4-one] | 75% | –
O=c1cc(-c2ccc(O)c(O)c2)oc2cc(O)cc(O)c12 [compound 10, luteolin, reference compound] | – | significantly better than CCCP at the same concentration (100 μM)
O=c1c(O)c(-c2ccc(O)c(O)c2)oc2cc(O)cc(O)c12 [compound 4, quercetin, reference compound] | – | efflux inhibitors
O=c1cc(-c2ccc(O)c(O)c2)oc2c(Nc3ccc(F)cc3)c(O)cc(O)c12 [compound 11, 2-(3,4-Dihydroxyphenyl)-8-(4-fluoroanilino)-5,7-dihydroxy-4H–1-benzopyran-4-one] | comparable to 8-(4-fluoroanilino) quercetin (5) | higher activity than CCCP alone
